# According to patent US4312948A, “Enzymic microbiological process for producing optically active aminoacids starting from hydantoins and/or racemic carbamoyl derivatives” (priority 1978, dated 1982):
# Target: T1, carbamoylytic enzyme (Enzyme II, carbamoylase) (Agrobacterium radiobacter, UniProt Q44185)
# T1 construct: endogenous in cells; host or cells: Agrobacterium sp. cells, acetone-dried powder (crude, enzyme not purified)
# Experiment: enzymic activity test of acetonic powder of Agrobacterium sp. cells on N-carbamoyl aminoacid substrates (NH4+ by phenol-hypochlorite method)
# Type: biochemical
# Conditions: 20 mM substrate in pyrophosphate buffer 0.1 M pH 7.7, acetonic powder, 40° C., 1-hour incubation, under nitrogen
# Protocol: Cells of Agrobacterium sp. strain were prepared as described in Example 1. A few grams of moist cellule slurry was slurried in pyrophosphate buffer (0.1 M pH 7.7) and subjected to acetonic treatment in the cold.
# After removing acetone by filtration, the acetonic preparation thus obtained was dried to constant weight in vacuum at 35° C. The dried material was homogenized in a mortar and powder thus obtained was used for the enzymic activity tests.
# The caetonic powder was assayed on the following substrates: N-carbamoyl-D-(-)-alanine, N-carbamoyl-D(-) valine, N-carbamoyl-D-(-)glutamic acid, N-carbamoyl-D(-)-parahydroxyphenylglycine,N-carbamoyl-D(-)-paramethoxyphenylglycine, N-carbamoyl-D-(-)-phenylglycine, N-carbamoyl-L(+)-phenylglycine, N-carbamoyl-D(-)-phenylalanine, N-carbamoyl-L(+)-glutamic acid and N-carbamoyl-D(-) (2-thienyl)-glycine.
# Thus, 20 mM solution were prepared of each carbamoyl derivative in pyrophosphate buffer 0.1 M pH 7.7, and, to 10 mls of each solution there was added an adequate quantity of acetonic powder, equal for each substrate.
# The incubation was carried out under a UPP nitrogen blanket with stirring at a temperature of 40° C. After 1-hour incubation, the quantity of the produced aminoacid was measured by determining in the reaction mixtures the concentration of the NH4^+ ion which has been reached, with the phenol-hypochlorite method indicated in Example 2.
# T1 sequence (Q44185 whole entry): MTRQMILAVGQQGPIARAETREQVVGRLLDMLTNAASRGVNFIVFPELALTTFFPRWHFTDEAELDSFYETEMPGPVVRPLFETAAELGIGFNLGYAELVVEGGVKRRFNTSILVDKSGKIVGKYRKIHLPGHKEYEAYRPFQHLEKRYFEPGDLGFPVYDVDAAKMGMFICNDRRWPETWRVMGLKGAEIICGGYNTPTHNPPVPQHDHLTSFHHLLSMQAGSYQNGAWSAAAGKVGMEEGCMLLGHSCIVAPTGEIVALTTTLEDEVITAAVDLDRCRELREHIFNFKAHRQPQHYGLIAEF
row,Compound,"% ACTIVITY (hydrolytic activity, assuming as 100 the activity against N-carbamoyl-D(-)-parahydroxyphenylglycine)"
1,NC(=O)N[C@@H](C(=O)O)c1cccs1 [N-carbamoyl-D(-)-(2-thienyl)glycine],40.7%
2,NC(=O)N[C@@H](C(=O)O)c1ccc(O)cc1 [N-carbamoyl-D(-)-parahydroxyphenylglycine],100.0%
3,COc1ccc([C@@H](NC(N)=O)C(=O)O)cc1 [N-carbamoyl-D(-)-paramethoxyphenylglycine],40.0%
4,NC(=O)N[C@H](Cc1ccccc1)C(=O)O [N-carbamoyl-D(-)-phenylalanine],50.0%
5,NC(=O)N[C@@H](C(=O)O)c1ccccc1 [N-carbamoyl-D(-)-phenylglycine],81.25%
6,CC(C)[C@@H](NC(N)=O)C(=O)O [N-carbamoyl-D(-)-valine],34.25%
7,NC(=O)N[C@H](CCC(=O)O)C(=O)O [N-carbamoyl-D(-)glutamic acid],21.7%
8,C[C@@H](NC(N)=O)C(=O)O [N-carbamoyl-D-(-)-alanine],57.5%
9,NC(=O)N[C@H](C(=O)O)c1ccccc1 [N-carbamoyl-L(+)-phenylglycine],0%
10,NC(=O)N[C@@H](CCC(=O)O)C(=O)O [N-carbamoyl-L(+)glutamic acid],0%

# Same assay, conditions: 20 mM substrate, pyrophosphate buffer 0.1 M pH 7.7, 40° C., 1-hour incubation
row,Compound,"activity of the carbamoylytic enzyme, ranking among substrates"
1,NC(=O)N[C@@H](C(=O)O)c1ccc(O)cc1 [N-carbamoyl-D(-)-parahydroxyphenylglycine],highest activity
